What was measured:
Assay in all cases: relative viability (nuclei count vs DMSO), 5 days (fraction); higher = more cells survive
H3255 = tested on: H3255
Procedure, shortened: (§1)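 Relative viability is defined as nuclei in treated wells over nuclei in vehicle wells. Duplicate plates were run and medians reported. Lung cancer cell lines in 1536-well plates were dosed by pin tool one day after seeding, with one drug or with a fixed anchor-drug dose plus five library-drug doses (not always all listed) in √10 steps, and nuclei were counted after 5 days.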

NCI-H1734 = tested on: NCI-H1734
Procedure, shortened: as §1

NCI-H3122 = tested on: NCI-H3122
Procedure, shortened: as §1

NCI-H2085 = tested on: NCI-H2085
Procedure, shortened: as §1

NCI-H2023 = tested on: NCI-H2023
Procedure, shortened: as §1

NCI-H2170 = tested on: NCI-H2170
Procedure, shortened: as §1

NCI-H520 = tested on: NCI-H520
Procedure, shortened: as §1

NCI-H2347 = tested on: NCI-H2347
Procedure, shortened: as §1

LOU-NH91 = tested on: LOU-NH91
Procedure, shortened: as §1

NCI-H1993 = tested on: NCI-H1993
Procedure, shortened: as §1

EPLC-272H = tested on: EPLC-272H
Procedure, shortened: as §1

NCI-H2405 = tested on: NCI-H2405
Procedure, shortened: as §1

RERF-LC-KJ = tested on: RERF-LC-KJ
Procedure, shortened: as §1

HCC-44 = tested on: HCC-44
Procedure, shortened: as §1

PC-14 = tested on: PC-14
Procedure, shortened: as §1

NCI-H1650 = tested on: NCI-H1650
Procedure, shortened: as §1

COR-L23 = tested on: COR-L23
Procedure, shortened: as §1

NCI-H647 = tested on: NCI-H647
Procedure, shortened: as §1

201T = tested on: 201T
Procedure, shortened: as §1

NCI-H1563 = tested on: NCI-H1563
Procedure, shortened: as §1

NCI-H441 = tested on: NCI-H441
Procedure, shortened: as §1

## NC(=O)Nc1cc(-c2cccc(F)c2)sc1C(=O)N[C@H]1CCCNC1 [AZD7762] + C[C@@H](Oc1cc(-c2cnn(C3CCNCC3)c2)cnc1N)c1c(Cl)ccc(F)c1Cl [Crizotinib] (partner 1 µM)
H3255; first compound 0.01 µM
  relative viability: 0.997
H3255; first compound 0.03162 µM
  relative viability: 0.88
H3255; first compound 0.1 µM
  relative viability: 0.891
H3255; first compound 0.3162 µM
  relative viability: 0.867
H3255; first compound 1 µM
  relative viability: 0.42
NCI-H1734; first compound 0.01 µM
  relative viability: 0.837
NCI-H1734; first compound 0.03162 µM
  relative viability: 0.676
NCI-H1734; first compound 0.1 µM
  relative viability: 0.869
NCI-H1734; first compound 0.3162 µM
  relative viability: 0.612
NCI-H1734; first compound 1 µM
  relative viability: 0.458
NCI-H3122; first compound 0.01 µM
  relative viability: 0.266
NCI-H3122; first compound 0.03162 µM
  relative viability: 0.296
NCI-H3122; first compound 0.1 µM
  relative viability: 0.329
NCI-H3122; first compound 0.3162 µM
  relative viability: 0.258
NCI-H3122; first compound 1 µM
  relative viability: 0.283
NCI-H2085; first compound 0.01 µM
  relative viability: 1.01
NCI-H2085; first compound 0.03162 µM
  relative viability: 0.889
NCI-H2085; first compound 0.1 µM
  relative viability: 0.839
NCI-H2085; first compound 0.3162 µM
  relative viability: 0.853
NCI-H2085; first compound 1 µM
  relative viability: 0.644
NCI-H2023; first compound 0.01 µM
  relative viability: 0.573
NCI-H2023; first compound 0.03162 µM
  relative viability: 0.612
NCI-H2023; first compound 0.1 µM
  relative viability: 0.417
NCI-H2023; first compound 0.3162 µM
  relative viability: 0.209
NCI-H2023; first compound 1 µM
  relative viability: 0.118
NCI-H2170; first compound 0.01 µM
  relative viability: 1.2
NCI-H2170; first compound 0.03162 µM
  relative viability: 1.26
NCI-H2170; first compound 0.1 µM
  relative viability: 1.24
NCI-H2170; first compound 0.3162 µM
  relative viability: 1.28
NCI-H2170; first compound 1 µM
  relative viability: 1
NCI-H520; first compound 0.01 µM
  relative viability: 0.975
NCI-H520; first compound 0.03162 µM
  relative viability: 0.692
NCI-H520; first compound 0.1 µM
  relative viability: 0.477
NCI-H520; first compound 0.3162 µM
  relative viability: 0.504
NCI-H520; first compound 1 µM
  relative viability: 0.276
NCI-H2347; first compound 0.01 µM
  relative viability: 1.01
NCI-H2347; first compound 0.03162 µM
  relative viability: 0.918
NCI-H2347; first compound 0.1 µM
  relative viability: 0.734
NCI-H2347; first compound 0.3162 µM
  relative viability: 0.928
NCI-H2347; first compound 1 µM
  relative viability: 0.67
LOU-NH91; first compound 0.01 µM
  relative viability: 0.764
LOU-NH91; first compound 0.03162 µM
  relative viability: 0.731
LOU-NH91; first compound 0.1 µM
  relative viability: 0.746
LOU-NH91; first compound 0.3162 µM
  relative viability: 0.76
LOU-NH91; first compound 1 µM
  relative viability: 0.546
NCI-H1993; first compound 0.01 µM
  relative viability: 0.952
NCI-H1993; first compound 0.03162 µM
  relative viability: 0.957
NCI-H1993; first compound 0.1 µM
  relative viability: 0.729
NCI-H1993; first compound 0.3162 µM
  relative viability: 0.873
NCI-H1993; first compound 1 µM
  relative viability: 0.808
EPLC-272H; first compound 0.01 µM
  relative viability: 0.895
EPLC-272H; first compound 0.03162 µM
  relative viability: 1.11
EPLC-272H; first compound 0.1 µM
  relative viability: 0.967
EPLC-272H; first compound 0.3162 µM
  relative viability: 0.859
EPLC-272H; first compound 1 µM
  relative viability: 0.75
NCI-H2405; first compound 0.01 µM
  relative viability: 0.94
NCI-H2405; first compound 0.03162 µM
  relative viability: 0.802
NCI-H2405; first compound 0.1 µM
  relative viability: 0.841
NCI-H2405; first compound 0.3162 µM
  relative viability: 0.819
NCI-H2405; first compound 1 µM
  relative viability: 0.398
RERF-LC-KJ; first compound 0.01 µM
  relative viability: 0.897
RERF-LC-KJ; first compound 0.03162 µM
  relative viability: 0.894
RERF-LC-KJ; first compound 0.1 µM
  relative viability: 0.777
RERF-LC-KJ; first compound 0.3162 µM
  relative viability: 0.809
RERF-LC-KJ; first compound 1 µM
  relative viability: 0.742
HCC-44; first compound 0.01 µM
  relative viability: 0.892
HCC-44; first compound 0.03162 µM
  relative viability: 0.808
HCC-44; first compound 0.1 µM
  relative viability: 0.854
HCC-44; first compound 0.3162 µM
  relative viability: 0.787
HCC-44; first compound 1 µM
  relative viability: 0.745
PC-14; first compound 0.01 µM
  relative viability: 0.943
PC-14; first compound 0.03162 µM
  relative viability: 0.859
PC-14; first compound 0.1 µM
  relative viability: 0.922
PC-14; first compound 0.3162 µM
  relative viability: 0.81
PC-14; first compound 1 µM
  relative viability: 0.41
NCI-H1650; first compound 0.01 µM
  relative viability: 1.18
NCI-H1650; first compound 0.03162 µM
  relative viability: 1.03
NCI-H1650; first compound 0.1 µM
  relative viability: 0.864
NCI-H1650; first compound 0.3162 µM
  relative viability: 0.603
NCI-H1650; first compound 1 µM
  relative viability: 0.207
COR-L23; first compound 0.01 µM
  relative viability: 0.775
COR-L23; first compound 0.03162 µM
  relative viability: 0.656
COR-L23; first compound 0.1 µM
  relative viability: 0.616
COR-L23; first compound 0.3162 µM
  relative viability: 0.45
COR-L23; first compound 1 µM
  relative viability: 0.117
NCI-H647; first compound 0.01 µM
  relative viability: 1.15
NCI-H647; first compound 0.03162 µM
  relative viability: 1.11
NCI-H647; first compound 0.1 µM
  relative viability: 0.941
NCI-H647; first compound 0.3162 µM
  relative viability: 0.546
NCI-H647; first compound 1 µM
  relative viability: 0.105
201T; first compound 0.01 µM
  relative viability: 0.969
201T; first compound 0.03162 µM
  relative viability: 1.02
201T; first compound 0.1 µM
  relative viability: 1.03
201T; first compound 0.3162 µM
  relative viability: 1.04
201T; first compound 1 µM
  relative viability: 1.16
NCI-H1563; first compound 0.01 µM
  relative viability: 0.957
NCI-H1563; first compound 0.03162 µM
  relative viability: 0.833
NCI-H1563; first compound 0.1 µM
  relative viability: 0.872
NCI-H1563; first compound 0.3162 µM
  relative viability: 0.889
NCI-H1563; first compound 1 µM
  relative viability: 0.741
NCI-H441; first compound 0.01 µM
  relative viability: 1.15
NCI-H441; first compound 0.03162 µM
  relative viability: 0.745
NCI-H441; first compound 0.1 µM
  relative viability: 1.15
NCI-H441; first compound 0.3162 µM
  relative viability: 0.995
NCI-H441; first compound 1 µM
  relative viability: 0.89
